From patent US20150005347A1, “NITROGEN-CONTAINING HETEROCYCLIC DERIVATIVE HAVING 2-IMINO GROUP AND PEST CONTROL AGENT INCLUDING THE SAME” (MEIJI SEIKA PHARMA CO., LTD., priority 2012, published 2015)
Read-outs that look alike come from different tables or passages of the source.

Experiments:
Format in all cases: in vivo
[1] = system: Frankliniella occidentalis; test: Pest control test of Frankliniella occidentalis, kidney bean leaf disk foliar spray; settings: for % Mortality, Test Example7 Frankliniella occidentalis: foliar treatment
From the text: Test Example 7 Pest Control Test of Frankliniella occidentalis
(§1) A leaf disk having a diameter of 2.8 cm was cut out from a kidney bean in pot culture, and a drug solution of the compound of the present invention at a predetermined concentration, which had been prepared so as to be a 50% acetone water (0.05% Tween20 available), was sprayed to the leaf disk. After an air drying process, first instar larvae were released thereto. Thereafter, the larvae were left to stand in a thermostatic chamber (16 hours of light period-8 hours of dark period) at 25° C. […] Test in duplicate.
(§2) Mortality of larvae(%)={number of dead larvae/(number of survived larvae+number of dead larvae)}×100

[2] = system: Spodoptera litura; test: Pest control test against Spodoptera litura, cabbage leaf disk foliar spray; settings: for mortality at 500 ppm: Spodoptera litura, 72 h, read-out: mortality of larvae; for % Mortality, Test Example2 Spodoptera litura: foliar treatment, 100 ppm
Procedure: Test Example 2 Pest Control Test Against Spodoptera litura
as §1, with “5.0” for “2.8”, “cabbage” for “kidney bean”, “third” for “first”
as §2

[3] = system: Nilaparvata lugens; test: Pest control test of Nilaparvata lugens, soil irrigation treatment; settings: for mortality of larvae: soil irrigation, 0.05 mg/seedling, three days after release; for % Mortality, Test Example 12 Nilaparvata lugens: soil irrigation treatment
Procedure: Test Example 12 Pest Control Test of Nilaparvata lugens
(§3) A rice seedling in pot culture was subjected to soil irrigation treatment with a drug solution of the compound of the present invention at a predetermined concentration, which had been prepared so as to be a 10% acetone water. Three days after the treatment, ten second instar larvae of Nilaparvata lugens were each released thereto. Thereafter, the larvae were left to stand in a thermostatic chamber (16 hours of light period-8 hours of dark period) at 25° C. […] The test was performed in duplicate.
as §2

[4] = system: Laodelphax striatella; test: Pest control test of Laodelphax striatella, soil irrigation treatment of rice seedling; settings: for mortality of larvae: soil irrigation, 0.05 mg/seedling, three days after release; for % Mortality, Test Example 10 Laodelphax striatella: soil irrigation treatment
From the text: <Soil Irrigation Treatment Test>
Test Example 10 Pest Control Test of Laodelphax striatellua
as §3, with “Laodelphax striatella” for “Nilaparvata lugens”
as §2

[5] = system: imidacloprid susceptible populations of Nilaparvata lugens; test: Soil irrigation test, imidacloprid susceptible populations of Nilaparvata lugens; settings: Rate 0.05 mg/pot
Procedure: as §3, with “Three days after the treatment, ten second instar larvae of Nilaparvata lugens were each released thereto.” left out
as §2
Further, for comparison, the test against some population of Nilaparvata lugens which is highly susceptible to imidacloprid was performed by the same method as described above, and the results thereof are shown in Table 43.
(§4) Further, for the origin of test pests, bugs collected outdoors within the Kumamoto prefecture in 2007 as the drug resistant Nilaparvata lugens, and bugs collected within the Kagoshima prefecture and then successively reared indoors for a long time as the imidacloprid susceptible populations of Nilaparvata lugens were used.

[6] = system: Plutella xylostella; test: Plutella xylostella control test, cabbage leaf disk foliar spray; settings: for % Mortality, Test Example1 Plutella xylostella: foliar treatment
Procedure: Test Example 1 Plutella xylostella Control Test
as §1, with “5.0” for “2.8”, “cabbage” for “kidney bean”, “second” for “first”
mortality larvae(%)={number of dead larvae/(number of survived larvae+number of dead larvae)}×100

[7] = system: Nilaparvata lugens exhibiting drug resistance to imidacloprid; settings: soil irrigation; for Insecticidal effects against Nilaparvata lugens (mortality of larvae %), Drug resistant populations three days after the treatment: Rate 0.05 mg/pot; for insecticidal effects against drug resistant Nilaparvata lugens: imidacloprid-resistant; for mortality of larvae against drug resistant populations compared with susceptible populations of Nilaparvata lugens: imidacloprid-resistant vs susceptible
Procedure: Test Example 18 Pest Control Test of Drug-Resistant Nilaparvata lugens
as §3, with “Three days after the treatment, ten second instar larvae of Nilaparvata lugens were each released thereto.” left out
as §2, §4

[8] = system: Trigonotylus caelestialium; test: Pest control test of Trigonotylus caelestialium, wheat seedling dipping
From the text: Test Example 8 Pest Control Test of Trigonotylus caelestialium
Wheat seedling leaves and stems four days after the dissemination of seedlings were dipped for 30 seconds in a drug solution of the compound of the present invention at a predetermined concentration, which had been prepared so as to be a 50% acetone water (0.05% Tween20 available). After an air drying process, the wheat seedling leaves and stems were placed into a glass tube, and two second instar larvae of Trigonotylus caelestialium were released to the same glass tube. After the larvae were released, the tube was lidded to leave the larvae to stand in a thermostatic chamber at 25° C. In order to supply water to the wheat during the test, water was given to the wheat from the bottom of the glass tube.
as §2

[9] = system: Aphis gossypii; test: Pest control test of Aphis gossypii, cucumber leaf disk foliar spray; settings: foliar treatment
Procedure: Test Example 3 Pest Control Test of Aphis gossypii
as §1, with “2.0” for “2.8”, “cucumber” for “kidney bean”
as §2

[10] = system: Musca domestica; test: Pest control test of Musca domestica adults, sucrose pledget; settings: 50 ppm in 40% sucrose liquid; four days after release
Procedure: Test Example 21 Pest Control Test of Musca domestica
A drug solution of the compound of the present invention, which had been adjusted to be 50 ppm with a 40% sucrose liquid, was adsorbed on a pledget, and the pledget was put into a vial. Two adults reared indoors were released thereto. Thereafter, the adults were left to stand indoors at room temperature of 25° C. […] When two adults were all agonized in death, it was judged to be effective.

| SMILES | mortality of larvae [3] [%] | mortality of larvae [4] [%] | Insecticidal effects against Nilaparvata lugens (mortality of larvae %), Susceptible populations three days after the treatment [5] [%] | % Mortality, Test Example7 Frankliniella occidentalis ([1]; 100 ppm) [%] | Insecticidal effects against Nilaparvata lugens (mortality of larvae %), Drug resistant populations three days after the treatment [7] [%] | insecticidal effects against drug resistant Nilaparvata lugens [7] | mortality of larvae against drug resistant populations compared with susceptible populations of Nilaparvata lugens [7] | % Mortality, Test Example8 Trigonotylus caelestialium ([8]; 2 ppm) [%] | % Mortality, Test Example8 Trigonotylus caelestialium ([8]; 10 ppm) [%] | % Mortality, Test Example8 Trigonotylus caelestialium ([8]; 50 ppm) [%] | % Mortality, Test Example3 Aphis gossypii ([9]; 0.313 ppm) [%] | % Mortality, Test Example3 Aphis gossypii ([9]; 1.25 ppm) [%] | % Mortality, Test Example3 Aphis gossypii ([9]; 5 ppm) [%] | % Mortality, Test Example3 Aphis gossypii ([9]; 20 ppm) [%] | % Mortality, Test Example3 Aphis gossypii ([9]; 100 ppm) [%] | % Mortality, Test Example2 Spodoptera litura [2] [%] | % Mortality, Test Example 12 Nilaparvata lugens ([3]; 0.01 mg/pot) [%] | % Mortality, Test Example 12 Nilaparvata lugens ([3]; 0.05 mg/pot) [%] | % Mortality, Test Example 10 Laodelphax striatella ([4]; 0.05 mg/pot) [%] | activity against adults (effective when two adults were all agonized in death) [10] | also measured |
| --- | --- | --- | --- | --- | --- | --- | --- | --- | --- | --- | --- | --- | --- | --- | --- | --- | --- | --- | --- | --- | --- |
| CCNC(=S)N=c1ccccn1Cc1ccc(Cl)nc1 [Comparative Example 8, 1-[1-((6-chloropyridine-3-yl)methyl)pyridine-2(1H)-ylidene]-3-ethylthiourea, reference compound] | 15 | 0 | 15 |  |  |  |  |  |  |  |  |  |  |  |  |  |  |  |  |  | mortality at 500 ppm ([1]; Frankliniella occidentalis, foliar, 72 h, read-out: mortality of larvae): 15%; mortality at 500 ppm ([2]; foliar): 10%; mortality at 500 ppm ([6]; Plutella xylostella, foliar, 72 h, read-out: mortality of larvae): 20% |
| CCOC(=O)NC(=S)/N=c1\ccccn1Cc1ccc(Cl)nc1 [Comparative Example 9, 1-[1-((6-chloropyridine-3-yl)methyl)pyridine-2(1H)-ylidene]-3-ethoxycarbonylthiourea, reference compound] | 0 | 0 | 0 |  |  |  |  |  |  |  |  |  |  |  |  |  |  |  |  |  | mortality at 500 ppm ([2]; foliar treatment at 500 ppm, third instar larvae, three days after release): 11% |
| FC(F)C(=S)N=c1ccccn1Cc1ccc(Cl)nc1 [Compound 1-21] |  |  | 67 | 90 | 50 | high insecticidal effects | equivalent mortality of larvae | 67 | 100 | 100 | 55 | 100 | 100 | 100 | 100 | 55 | 10 | 85 | 100 | all the adults are agonized in death | % Mortality, Test Example7 Frankliniella occidentalis ([1]; 20 ppm): 80%; % Mortality, Test Example 10 Laodelphax striatella ([4]; 0.01 mg/pot): 20%; % Mortality, Test Example1 Plutella xylostella ([6]; 20 ppm): 10%; % Mortality, Test Example1 Plutella xylostella ([6]; 100 ppm): 80% |
| FC(F)(F)C(F)(F)C(=S)N=c1ccccn1Cc1ccc(Cl)nc1 [Compound 1-23] |  |  | 85 |  | 70 | high insecticidal effects | equivalent mortality of larvae |  |  |  |  |  |  |  |  |  |  |  |  | all the adults are agonized in death |  |
| Fc1ccc(Cn2ccccc2=NC(=S)C(F)(F)F)cn1 [Compound 3-20] |  |  | 100 | 45 | 100 | high insecticidal effects | equivalent mortality of larvae | 50 | 100 | 100 | 15 | 100 | 100 | 100 | 100 | 30 | 100 | 100 | 90 | all the adults are agonized in death | % Mortality, Test Example1 Plutella xylostella ([6]; 20 ppm): 0%; % Mortality, Test Example1 Plutella xylostella ([6]; 100 ppm): 55% |
